Measurements as given in US9687467B2, “Diagnosis and treatment of taxane-resistant cancers” (Children's Medical Center Corporation, priority 2011, dated 2017).
Where two headings read alike, the source gives them in different places.

Tests used:
T20.2 cells = experiment: cells; type: cell-based; settings: Homo sapiens
Procedure: (FIG. 7A). The parental A549 cells, a cell line that became refractory during in vivo treatment with paclitaxel (T20.2 round 1) and the same cell line established after yet another round of in vivo paclitaxel treatment (T20.2 reinjection) were treated with paclitaxel and cell viability was assessed using the MTT assay. Represented are average LC50±s.e.m. determined by MTT assay for parental A549 cells (white boxes), **P<0.001, *P<0.05 as determined by Wilcoxon's rank sum test for T20.2 round 1 cells (hatched boxes) and for T20.2 re-injection cells (filled boxes). (FIG. 7B) The expression of miR-135a was examined in these cells by qRT-PCR. *P<0.05 as determined by Wilcoxon's rank sum test. […] The correlation between paclitaxel response and miR-135a expression was calculated using the Spearman's rank test. […] Subsequently, cells were treated with the indicated concentrations of paclitaxel and cell viability was assessed using the MTT assay. […]
Approximately 4×10^6 human A549 NSCLC cells were resuspended in 50% Matrigel (BD Biosciences, Bedford, Mass.) and injected subcutaneously into the hind flanks of 8-wk old male athymic (nu/nu) nude mice (Taconic Farms, Inc., Hudson, N.Y.). […] Tumor size was determined by digital caliper measurements (length and width in mm), and tumor volume (mm^3) was estimated using the formula (length×width^2)/2. […]

[1] = Mouse weight during paclitaxel treatment; type: in vivo, nude mice; settings: 15 mg/kg paclitaxel intraperitoneally 3 times per week
Procedure: FIG. 11 is a line graph indicating mouse weight in paclitaxel-treated and control groups. Tumor-bearing nude mice were treated i.p. with 15 mg/kg paclitaxel every other day. Animals were weighed before each injection on a digital scale. Each curve represents the mean weight±s.e.m. of 10 mice per day of treatment.
Approximately 4×10^6 human A549 NSCLC cells were resuspended in 50% Matrigel (BD Biosciences, Bedford, Mass.) and injected subcutaneously into the hind flanks of 8-wk old male athymic (nu/nu) nude mice (Taconic Farms, Inc., Hudson, N.Y.). When the average tumor volume reached ˜150 mm^3, mice (N=10 per group) were randomly assigned to the treatment or control group (Day 0). Mice were treated with vehicle (control) or 15 mg/kg paclitaxel (Bristol-Myers Squibb Co, Princeton, N.J.) intraperitoneally 3 times per week (on Mondays, Wednesdays, and Fridays). […] Tumor size was determined by digital caliper measurements (length and width in mm), and tumor volume (mm^3) was estimated using the formula (length×width^2)/2. Effects on tumor growth rate were assessed per mouse by determining the tumor volume on the day of treatment relative to the tumor volume on Day 0. Animals were sacrificed once morbidity became evident or their tumor size exceeded 1000 mm^3. […]

CC(=O)O[C@H]1C(=O)[C@@]2(C)[C@H]([C@H](OC(=O)c3ccccc3)[C@]3(O)C[C@H](OC(=O)[C@H](O)[C@@H](NC(=O)c4ccccc4)c4ccccc4)C(C)=C1C3(C)C)[C@]1(OC(C)=O)CO[C@@H]1C[C@@H]2O [paclitaxel]
CC50 (T20.2 cells; read-out: median LC50, after one in vivo passage (T20.2 round 1), MTT, P=0.030): 13.3 nM
CC50 (T20.2 cells; read-out: median LC50, after re-injection (T20.2 reinjection), MTT, P=0.008): 127 nM
mouse morbidity as measured by mouse weight [1]: minimal effects on mouse morbidity
